Assays:
[1] = tested on: CCRF-CEM (leukemia); assay: NCI 60-cell one-dose antiproliferative screen; assay type: cell-based, human; settings: one dose 10 μM
[2] = tested on: RPMI-8226 (leukemia); assay: NCI 60-cell one-dose antiproliferative screen; assay type: cell-based, human; settings: one dose 10 μM
[3] = tested on: A549/ATCC (NSC lung cancer); assay: NCI 60-cell one-dose antiproliferative screen; assay type: cell-based, human; settings: one dose 10 μM
[4] = tested on: EKVX (NSC lung cancer); assay: NCI 60-cell one-dose antiproliferative screen; assay type: cell-based, human; settings: one dose 10 μM
[5] = tested on: HOP-62 (NSC lung cancer); assay: NCI 60-cell one-dose antiproliferative screen; assay type: cell-based, human; settings: one dose 10 μM
[6] = tested on: HOP-92 (NSC lung cancer); assay: NCI 60-cell one-dose antiproliferative screen; assay type: cell-based, human; settings: one dose 10 μM
[7] = tested on: NCI-H226 (NSC lung cancer); assay: NCI 60-cell one-dose antiproliferative screen; assay type: cell-based, human; settings: one dose 10 μM
[8] = tested on: NCI-H23 (NSC lung cancer); assay: NCI 60-cell one-dose antiproliferative screen; assay type: cell-based, human; settings: one dose 10 μM
[9] = tested on: NCI-H322M (NSC lung cancer); assay: NCI 60-cell one-dose antiproliferative screen; assay type: cell-based, human; settings: one dose 10 μM
[10] = tested on: NCI-H460 (NSC lung cancer); assay: NCI 60-cell one-dose antiproliferative screen; assay type: cell-based, human; settings: one dose 10 μM
[11] = tested on: NCI-H522 (NSC lung cancer); assay: NCI 60-cell one-dose antiproliferative screen; assay type: cell-based, human; settings: one dose 10 μM
[12] = tested on: COLO-205 (colon cancer); assay: NCI 60-cell one-dose antiproliferative screen; assay type: cell-based, human; settings: one dose 10 μM
[13] = tested on: HCC-2998 (colon cancer); assay: NCI 60-cell one-dose antiproliferative screen; assay type: cell-based, human; settings: one dose 10 μM
[14] = tested on: HCT-116 (colon cancer); assay: NCI 60-cell one-dose antiproliferative screen; assay type: cell-based, human; settings: one dose 10 μM
[15] = tested on: HCT-15 (colon cancer); assay: NCI 60-cell one-dose antiproliferative screen; assay type: cell-based, human; settings: one dose 10 μM
[16] = tested on: HT29 (colon cancer); assay: NCI 60-cell one-dose antiproliferative screen; assay type: cell-based, human; settings: one dose 10 μM
[17] = tested on: KM12 (colon cancer); assay: NCI 60-cell one-dose antiproliferative screen; assay type: cell-based, human; settings: one dose 10 μM
[18] = tested on: SW-620 (colon cancer); assay: NCI 60-cell one-dose antiproliferative screen; assay type: cell-based, human; settings: one dose 10 μM
[19] = tested on: SF-268 (CNS cancer); assay: NCI 60-cell one-dose antiproliferative screen; assay type: cell-based, human; settings: one dose 10 μM
[20] = tested on: SF-295 (CNS cancer); assay: NCI 60-cell one-dose antiproliferative screen; assay type: cell-based, human; settings: one dose 10 μM
[21] = tested on: SF-539 (CNS cancer); assay: NCI 60-cell one-dose antiproliferative screen; assay type: cell-based, human; settings: one dose 10 μM
[22] = tested on: SNB-19 (CNS cancer); assay: NCI 60-cell one-dose antiproliferative screen; assay type: cell-based, human; settings: one dose 10 μM
[23] = tested on: SNB-75 (CNS cancer); assay: NCI 60-cell one-dose antiproliferative screen; assay type: cell-based, human; settings: one dose 10 μM
[24] = tested on: U251 (CNS cancer); assay: NCI 60-cell one-dose antiproliferative screen; assay type: cell-based, human; settings: one dose 10 μM
[25] = tested on: LOX IMIV (melanoma); assay: NCI 60-cell one-dose antiproliferative screen; assay type: cell-based, human; settings: one dose 10 μM
[26] = tested on: MALME-3M (melanoma); assay: NCI 60-cell one-dose antiproliferative screen; assay type: cell-based, human; settings: one dose 10 μM
[27] = tested on: M14 (melanoma); assay: NCI 60-cell one-dose antiproliferative screen; assay type: cell-based, human; settings: one dose 10 μM
[28] = tested on: MDA-MB-435 (melanoma); assay: NCI 60-cell one-dose antiproliferative screen; assay type: cell-based, human; settings: one dose 10 μM
[29] = tested on: SK-MEL-2 (melanoma); assay: NCI 60-cell one-dose antiproliferative screen; assay type: cell-based, human; settings: one dose 10 μM
[30] = tested on: SK-MEL-28 (melanoma); assay: NCI 60-cell one-dose antiproliferative screen; assay type: cell-based, human; settings: one dose 10 μM
[31] = tested on: UACC-257 (melanoma); assay: NCI 60-cell one-dose antiproliferative screen; assay type: cell-based, human; settings: one dose 10 μM
[32] = tested on: UACC-62 (melanoma); assay: NCI 60-cell one-dose antiproliferative screen; assay type: cell-based, human; settings: one dose 10 μM
[33] = tested on: IGROV1 (ovarian cancer); assay: NCI 60-cell one-dose antiproliferative screen; assay type: cell-based, human; settings: one dose 10 μM
[34] = tested on: OVCAR-3 (ovarian cancer); assay: NCI 60-cell one-dose antiproliferative screen; assay type: cell-based, human; settings: one dose 10 μM
[35] = tested on: OVCAR-4 (ovarian cancer); assay: NCI 60-cell one-dose antiproliferative screen; assay type: cell-based, human; settings: one dose 10 μM
[36] = tested on: OVCAR-5 (ovarian cancer); assay: NCI 60-cell one-dose antiproliferative screen; assay type: cell-based, human; settings: one dose 10 μM
[37] = tested on: OVCAR-8 (ovarian cancer); assay: NCI 60-cell one-dose antiproliferative screen; assay type: cell-based, human; settings: one dose 10 μM
[38] = tested on: NCI/ADR-RES (ovarian cancer); assay: NCI 60-cell one-dose antiproliferative screen; assay type: cell-based, human; settings: one dose 10 μM
[39] = tested on: SK-OV-3 (ovarian cancer); assay: NCI 60-cell one-dose antiproliferative screen; assay type: cell-based, human; settings: one dose 10 μM
[40] = tested on: 786-0 (renal cancer); assay: NCI 60-cell one-dose antiproliferative screen; assay type: cell-based, human; settings: one dose 10 μM
[41] = tested on: A498 (renal cancer); assay: NCI 60-cell one-dose antiproliferative screen; assay type: cell-based, human; settings: one dose 10 μM
[42] = tested on: ACHN (renal cancer); assay: NCI 60-cell one-dose antiproliferative screen; assay type: cell-based, human; settings: one dose 10 μM
[43] = tested on: CAKI-1 (renal cancer); assay: NCI 60-cell one-dose antiproliferative screen; assay type: cell-based, human; settings: one dose 10 μM
[44] = tested on: RXF 393 (renal cancer); assay: NCI 60-cell one-dose antiproliferative screen; assay type: cell-based, human; settings: one dose 10 μM
[45] = tested on: SN12C (renal cancer); assay: NCI 60-cell one-dose antiproliferative screen; assay type: cell-based, human; settings: one dose 10 μM
[46] = tested on: TK-10 (renal cancer); assay: NCI 60-cell one-dose antiproliferative screen; assay type: cell-based, human; settings: one dose 10 μM
[47] = tested on: UO-31 (renal cancer); assay: NCI 60-cell one-dose antiproliferative screen; assay type: cell-based, human; settings: one dose 10 μM
[48] = tested on: PC-3 (prostate cancer); assay: NCI 60-cell one-dose antiproliferative screen; assay type: cell-based, human; settings: one dose 10 μM
[49] = tested on: DU-145 (prostate cancer); assay: NCI 60-cell one-dose antiproliferative screen; assay type: cell-based, human; settings: one dose 10 μM
[50] = tested on: MCF7 (breast cancer); assay: NCI 60-cell one-dose antiproliferative screen; assay type: cell-based, human; settings: one dose 10 μM
[51] = tested on: MDA-MB-231/ATCC (breast cancer); assay: NCI 60-cell one-dose antiproliferative screen; assay type: cell-based, human; settings: one dose 10 μM
[52] = tested on: HS 578T (breast cancer); assay: NCI 60-cell one-dose antiproliferative screen; assay type: cell-based, human; settings: one dose 10 μM
[53] = tested on: T-47D (breast cancer); assay: NCI 60-cell one-dose antiproliferative screen; assay type: cell-based, human; settings: one dose 10 μM
[54] = tested on: MDA-MB-468 (breast cancer); assay: NCI 60-cell one-dose antiproliferative screen; assay type: cell-based, human; settings: one dose 10 μM
[55] = tested on: 60 human tumor cell lines; assay: NCI 60-cell one-dose antiproliferative screen, whole panel; assay type: cell-based; settings: Homo sapiens, 60 cell, read-out: Mean inhibition (mean GI%)

## COc1ccc(-c2nnc3ccc(NN=Cc4ccccc4)nn23)cc1 [Compound 4e, 6-(2-Benzylidenehydrazinyl)-3-(4-methoxyphenyl)-[1,2,4]triazolo[4,3-b]pyridazine]
[1]
  GI%: — (— GI% is below 15%)
[2]
  GI%: — (— GI% is below 15%)
[3]
  GI%: 21.90%
[4]
  GI%: — (— GI% is below 15%)
[5]
  GI%: — (— GI% is below 15%)
[6]
  GI%: 29.15%
[7]
  GI%: 42.42%
[8]
  GI%: — (— GI% is below 15%)
[9]
  GI%: — (— GI% is below 15%)
[10]
  GI%: — (— GI% is below 15%)
[11]
  GI%: — (— GI% is below 15%)
[12]
  GI%: — (— GI% is below 15%)
[13]
  GI%: — (— GI% is below 15%)
[14]
  GI%: — (— GI% is below 15%)
[15]
  GI%: — (— GI% is below 15%)
[16]
  GI%: — (— GI% is below 15%)
[17]
  GI%: — (— GI% is below 15%)
[18]
  GI%: — (— GI% is below 15%)
[19]
  GI%: — (— GI% is below 15%)
[20]
  GI%: — (— GI% is below 15%)
[21]
  GI%: 17.17%
[22]
  GI%: 17.10%
[23]
  GI%: 62.97%
[24]
  GI%: 22.16%
[25]
  GI%: 29.87%
[26]
  GI%: — (— GI% is below 15%)
[27]
  GI%: — (— GI% is below 15%)
[28]
  GI%: — (— GI% is below 15%)
[29]
  GI%: — (— GI% is below 15%)
[30]
  GI%: — (— GI% is below 15%)
[31]
  GI%: — (— GI% is below 15%)
[32]
  GI%: — (— GI% is below 15%)
[33]
  GI%: — (— GI% is below 15%)
[34]
  GI%: — (— GI% is below 15%)
[35]
  GI%: — (— GI% is below 15%)
[36]
  GI%: — (— GI% is below 15%)
[37]
  GI%: 34.25%
[38]
  GI%: 30.10%
[39]
  GI%: — (— GI% is below 15%)
[40]
  GI%: — (— GI% is below 15%)
[41]
  GI%: — (— GI% is below 15%)
[42]
  GI%: — (— GI% is below 15%)
[43]
  GI%: — (— GI% is below 15%)
[44]
  GI%: — (— GI% is below 15%)
[45]
  GI%: — (— GI% is below 15%)
[46]
  GI%: — (— GI% is below 15%)
[47]
  GI%: — (— GI% is below 15%)
[48]
  GI%: — (— GI% is below 15%)
[49]
  GI%: — (— GI% is below 15%)
[50]
  GI%: 28.54%
[51]
  GI%: 34.41%
[52]
  GI%: 17.35%
[53]
  GI%: — (— GI% is below 15%)
[54]
  GI%: — (— GI% is below 15%)
[55]
  inhibition at 10 µM: 7.15%
